Laboratory results as given in US20240360134A1, “PYRAZOLOPYRIMIDINES AND THEIR USES AS PDGFR INHIBITORS” (priority 2021, published 2024).
Where two headings read alike, the source gives them in different places.

Key:
VEGFR2, unphosphorylated = VEGFR2, unphosphorylated (Homo sapiens (Human), UniProt P35968); assay: VEGFR ADP GLO assay; format: biochemical; conditions: 5 nM VEGFR2, 1.2 mM ATP, 1 mg/mL Srctide, 180 min
Method: Assay buffer stock contains 50 mM HEPES pH7.5, 10 mM MgCl2, 0.01% Brij-35, and 1 mM EGTA.
Unphosphorylated VEGFR2. 52.6 μM in 50 mM Tris-HCl, pH 8.0, 50 mM NaCl, 5% Glycerol, 0.5 mM TCEP. Store at −80° C. in aliquots.
10 mg/mL srctide solution, prepared in Assay buffer (Assay buffer stock with 2 mM DTT, 0.1% Pluronic F-127, and 0.1 mg/mL ovalbumin). Sonicate 10 mg/ml Srctide solution for 10 minutes and then vacuum filter.
Assay buffer. Add DTT to 2 mM, Pluronic F-127 to 0.1% and ovalbumin to 0.1 mg/mL to Assay buffer stock.
2× kinase solution. Make a working solution of 10 nM unphosphorylated VEGFR2 in Assay buffer. Vacuum filter 2× kinase solution prior to running assay. Keep on ice until use.
2× substrate/ATP solution. Make a working solution of 2 mg/mL srctide and 2.4 mM ATP in Assay buffer. Keep on ice until use.
Step 1. Dispensing inhibitors/controls: Using Echo, dispense 10 nL/well compound serial dilutions in DMSO to columns 1-22 (in 384-well plates) or columns 1-44 (in 1536-well plates). Dilution series=11 pt, 3-fold dilutions. The top compound concentration in the source plate is 4 mM. The top compound concentration in the assay plate is 10 uM. Using Echo, dispense 10 nl/well DMSO to column 23 (in 384-well plates) or columns 45-47 (in 1536-well plates). These wells will serve as negative control wells Using Echo, dispense 10 nl/well 400 uM TAK-593 in DMSO to column 24 (in 384-well plates) or column 48 (in 1536-well plates). The final concentration of TAK-593 in the assay should be 1 uM. These wells will serve as positive control wells.
Step 2. Pre-incubation of inhibitors with kinase: Add 2 μL/well 2× kinase solution. Centrifuge at 1000 rpm for 1 min. Incubate at room temperature for 30 min.
Step 3. Kinase cascade reaction: Add 2 μL/well 2× substrate/ATP solution to initiate kinase reactions. Centrifuge at 1000 rpm for 1 min. Incubate at room temperature for 180 min.
Final concentrations of components in the assay:
Step 4. Quench: Add 2 uL/well ADP Glo Reagent+0.05% CHAPS. Centrifuge at 1000 rpm for 1 min; Incubate at room temperature for one hour.
Step 5. Detection: Add 2 uL/well Kinase Detection Reagent+0.05% CHAPS. Centrifuge at 1000 rpm for 1 min; Incubate at room temperature for 1 hour; Read Luminescence on a plate reader.
% Inhibition: % Inhibition=(NC−sample)/(NC−PC)*100 where NC is the mean of negative control (reactions without inhibitor), and PC is the mean of positive control (1 μM TAK-593).
IC50 values are determined from a 4-parameter fit, using the following equation: Y=Bottom+(Top−Bottom)/(1+10^(Log IC50-X)*Hill Slope), where X=log10 of the compound concentration; top can be defined by PC; bottom defined by NC.

PDGFRβ = PDGFRβ (Rattus norvegicus (Rat), UniProt Q05030); assay: PDGFRβ Cellular Assay (PDGFRb P-Y751 HTRF, PDGF-BB stimulated A10 cells); format: cell-based
Method: Cell Culture and Preparation: Cells are cultured according to ATCC procedure (5) with the addition of the antibiotic penicillin-streptomycin. If working from frozen, cells should be thawed according to ATCC procedure. Depending on the cell density of frozen vial, cells will need time to recover from thaw. An 80% confluent T75 flask should be enough for one 384 well plate.
Stock Solutions: Rat PDGFBB. A 100 ug/mL stock is prepared by reconstituting 50 ug in 500 μL of 4 mM HCl and 0.1% BSA. It can be stored for a month at 4° C., or aliquoted out and frozen in the −20/−80° C. to avoid multiple free-thaw cycles.
1× Cisbio cell lysis buffer. The cell lysis buffer is diluted 4-fold with molecular grade water. The blocking agent is then diluted 25-fold in the diluted lysis buffer.
Antibody solutions. Equal amounts d2 and cryptate antibody are diluted 20-fold in detection buffer.
Rat PDGFBB. A working stock of 100 ng/mL is created from the stock solution in 10% FBS culture media.
Step 1: Plating Cells: Media from the A10 cell flask is aspirated. The cells are rinsed with PBS and then trypsinized to disperse the cell layer. The cells are then pelleted are resuspended to 1.25e5 cells/mL. […] Plates are covered and placed in the incubator (37° C. 5% CO2) overnight to allow cells to adhere.
Step 2: Compound Dispense: Approximately 18 hours after plating, dispense 40 nL compound onto cells using Echo. […] The plate is returned to the incubator for 3 hours.
After 10 minutes the media is removed by flicking the plate.
Step 4: Cell lysis and antibody addition: 20 uL lysis buffer per well is added to the plate via Tempest. 5 uL antibody solution is added per well via the Tempest. The plate is placed on the shaker at 230 rpm for 1 hour at room temperature.
Step 5: Detection: The plate is read using the HTRF module on the BMG Pherastar. Data is analyzed using Genedata Screener.
IC50 values are determined from a 4-parameter fit, using the following equation: Y=Bottom+(Top−Bottom)/(1+10((Log IC50−X)*Hill slope)), where X=log10 of the compound concentration; top can be defined by PC; bottom defined by NC.

[1] = A10 cells, 3 hours compound, 15 ng/mL PDGFbb for 10 minutes, read-out: PDGFR Cellular IC50

Chain of PDGFRβ (Q05030 whole entry, looked up): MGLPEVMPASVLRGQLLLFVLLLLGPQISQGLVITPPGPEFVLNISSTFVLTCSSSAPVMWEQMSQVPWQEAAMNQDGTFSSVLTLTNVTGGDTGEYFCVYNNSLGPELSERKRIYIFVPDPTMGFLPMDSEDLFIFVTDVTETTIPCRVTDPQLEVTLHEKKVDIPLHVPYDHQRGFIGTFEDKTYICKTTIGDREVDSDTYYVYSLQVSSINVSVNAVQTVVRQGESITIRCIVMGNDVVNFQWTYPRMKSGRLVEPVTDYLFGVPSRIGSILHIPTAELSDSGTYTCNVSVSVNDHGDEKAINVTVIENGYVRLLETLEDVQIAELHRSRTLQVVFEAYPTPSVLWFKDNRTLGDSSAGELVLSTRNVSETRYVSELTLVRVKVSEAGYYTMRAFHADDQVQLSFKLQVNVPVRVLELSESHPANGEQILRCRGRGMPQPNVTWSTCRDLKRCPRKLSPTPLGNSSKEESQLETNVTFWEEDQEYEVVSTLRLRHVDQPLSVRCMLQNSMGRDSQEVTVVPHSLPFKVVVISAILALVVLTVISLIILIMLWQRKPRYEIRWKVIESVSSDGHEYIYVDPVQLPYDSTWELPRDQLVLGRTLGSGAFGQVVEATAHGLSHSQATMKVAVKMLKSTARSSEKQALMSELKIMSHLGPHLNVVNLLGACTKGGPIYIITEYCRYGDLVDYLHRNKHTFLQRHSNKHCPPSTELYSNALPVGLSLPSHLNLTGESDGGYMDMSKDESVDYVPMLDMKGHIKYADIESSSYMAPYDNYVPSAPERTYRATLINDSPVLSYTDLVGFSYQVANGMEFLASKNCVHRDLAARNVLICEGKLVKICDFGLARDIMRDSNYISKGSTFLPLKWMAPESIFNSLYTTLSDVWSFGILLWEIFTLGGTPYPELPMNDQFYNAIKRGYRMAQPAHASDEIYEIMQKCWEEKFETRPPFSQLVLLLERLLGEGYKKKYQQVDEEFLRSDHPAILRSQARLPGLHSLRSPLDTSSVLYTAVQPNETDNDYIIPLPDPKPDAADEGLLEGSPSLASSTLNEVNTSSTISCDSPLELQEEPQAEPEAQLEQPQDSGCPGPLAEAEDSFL
Chain of VEGFR2, unphosphorylated (P35968 whole entry, looked up): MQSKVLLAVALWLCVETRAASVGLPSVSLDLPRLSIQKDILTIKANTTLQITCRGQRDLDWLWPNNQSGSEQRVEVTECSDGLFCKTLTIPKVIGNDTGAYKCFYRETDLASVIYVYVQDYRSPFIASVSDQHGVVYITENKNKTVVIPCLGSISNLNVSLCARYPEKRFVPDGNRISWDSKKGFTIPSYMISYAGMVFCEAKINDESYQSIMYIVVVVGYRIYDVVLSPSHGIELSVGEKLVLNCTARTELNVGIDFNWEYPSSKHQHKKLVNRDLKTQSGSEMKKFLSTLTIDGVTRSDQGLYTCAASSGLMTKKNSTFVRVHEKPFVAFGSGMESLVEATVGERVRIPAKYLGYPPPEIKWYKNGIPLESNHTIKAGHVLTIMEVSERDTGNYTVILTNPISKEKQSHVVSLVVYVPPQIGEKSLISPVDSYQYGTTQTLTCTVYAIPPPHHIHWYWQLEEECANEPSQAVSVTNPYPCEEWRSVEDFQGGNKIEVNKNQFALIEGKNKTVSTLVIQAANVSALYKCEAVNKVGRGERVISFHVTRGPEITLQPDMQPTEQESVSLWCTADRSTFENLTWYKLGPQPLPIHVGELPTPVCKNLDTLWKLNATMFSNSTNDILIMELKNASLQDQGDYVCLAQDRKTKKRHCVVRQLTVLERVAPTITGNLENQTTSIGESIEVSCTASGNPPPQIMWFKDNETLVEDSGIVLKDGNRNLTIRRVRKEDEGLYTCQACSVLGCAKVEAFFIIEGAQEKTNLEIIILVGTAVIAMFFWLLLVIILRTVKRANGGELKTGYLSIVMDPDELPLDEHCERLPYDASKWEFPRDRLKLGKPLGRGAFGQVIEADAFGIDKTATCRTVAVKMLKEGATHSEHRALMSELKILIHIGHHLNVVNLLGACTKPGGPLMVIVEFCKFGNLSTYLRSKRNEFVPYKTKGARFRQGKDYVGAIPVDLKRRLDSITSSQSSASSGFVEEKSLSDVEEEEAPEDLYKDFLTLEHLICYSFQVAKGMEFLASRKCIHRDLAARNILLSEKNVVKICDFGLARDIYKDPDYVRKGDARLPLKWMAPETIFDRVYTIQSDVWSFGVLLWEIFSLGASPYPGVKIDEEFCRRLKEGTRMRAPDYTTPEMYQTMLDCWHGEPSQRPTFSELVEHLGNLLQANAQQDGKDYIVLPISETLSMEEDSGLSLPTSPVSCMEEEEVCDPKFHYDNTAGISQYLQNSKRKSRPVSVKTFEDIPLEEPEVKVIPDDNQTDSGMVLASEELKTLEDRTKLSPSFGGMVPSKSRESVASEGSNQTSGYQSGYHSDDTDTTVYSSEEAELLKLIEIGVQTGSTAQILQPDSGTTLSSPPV

SMILES | IC50 (VEGFR2, unphosphorylated) [nM] | IC50 (PDGFRβ; [1]) [nM] | IC50 (PDGFRβ) [nM]
Cc1ncc(C(=O)NCCN2CC[C@@H](C)C2)cc1Nc1nn(C)c2nc(Nc3cncnc3)ncc12 [Example 59, (R)-6-methyl-5-((1-methyl-6-(pyrimidin-5-ylamino)-1H pyrazolo-[3,4-d]pyrimidin-3-yl)amino)-N-(2-(3-methylpyrrolidin-1-yl)ethyl)nicotinamide] | > 7500 | 190 | 
COC1CCN(CCNC(=O)c2cnc(C)c(Nc3nn(C)c4nc(Nc5cnn(C)c5)ncc34)c2)CC1 [Example 22, N-(2-(4-methoxypiperidin-1-yl)ethyl)-6-methyl-5-((1-methyl-6-((1-methyl-1H-pyrazol-4-yl)amino)-1H-pyrazolo[3,4-d]pyrimidin-3-yl)amino)nicotinamide] | > 7500 |  | 88.7
Cc1ncc(C(=O)NCCN2CCC3(CCO3)CC2)cc1Nc1nn(C)c2nc(Nc3cnn(C)c3)ncc12 [Example 19, N-(2-(1-oxa-7-azaspiro[3.5]nonan-7-yl)ethyl)-6-methyl-5-((1-methyl-6-((1-methyl-1H-pyrazol-4-yl)amino)-1H-pyrazolo[3,4-d]pyrimidin-3-yl)amino)nicotinamide] | > 7500 |  | 56
COCCn1cc(Nc2ncc3c(Nc4cc(NC(=O)CN5CCC56CCC6)cnc4C)nn(C)c3n2)cn1 [Example 123, N-(5-((6-((1-(2-methoxyethyl)-1H-pyrazol-4-yl)amino)-1-methyl-1H-pyrazolo[3,4-d]pyrimidin-3-yl)amino)-6-methylpyridin-3-yl)-2-(1-azaspiro[3.3]heptan-1-yl)acetamide] |  | 4.7 | 
Cc1ncc(NC(=O)CN(CCCO)C2CCCC2)cc1Nc1nn(C)c2nc(Nc3cnn(C)c3)ncc12 [Example 80, 2-(cyclopentyl(3-hydroxypropyl)amino)-N-(6-methyl-5-((1-methyl-6-((1-methyl-1H-pyrazol-4-yl)amino)-1H-pyrazolo[3,4-d]pyrimidin-3-yl)amino)pyridin-3-yl)acetamide] |  | 16.6 | 
Cc1ncc(NC(=O)CN2CCC(F)(F)C2)cc1Nc1nn(C)c2nc(Nc3cnn(C)c3)ncc12 [Example 75, 2-(3,3-difluoropyrrolidin-1-yl)-N-(6-methyl-5-((1-methyl-6-((1-methyl-1H-pyrazol-4-yl)amino)-1H-pyrazolo[3,4-d]pyrimidin-3-yl)amino)pyridin-3-yl)acetamide] |  | 4.9 | 
Cc1ncc(C(=O)NCCN2CCOC3(CC3)C2)cc1Nc1nn(C)c2nc(Nc3cnn(C)c3)ncc12 [Example 54, N-(2-(4-oxa-7-azaspiro[2.5]octan-7-yl)ethyl)-6-methyl-5-((1-methyl-6-((1-methyl-1H-pyrazol-4-yl)amino)-1H-pyrazolo[3,4-d]pyrimidin-3-yl)amino)nicotinamide] | 4730 |  | 36.3
COC(=O)Cc1cccc(Nc2ncc3c(Nc4cc(C(=O)NCCN5CCCC5(C)C)cnc4C)nn(C)c3n2)c1 [Example 43] |  | 24 | 
Cc1ncc(NC(=O)CN2C[C@@H](C)O[C@@H](C)C2)cc1Nc1nn(C)c2nc(Nc3cnn(C)c3)ncc12 [Example 78, 2-(cis-2,6-dimethylmorpholino)-N-(6-methyl-5-((1-methyl-6-((1-methyl-1H-pyrazol-4-yl)amino)-1H-pyrazolo[3,4-d]pyrimidin-3-yl)amino)pyridin-3-yl)acetamide] |  | 8.3 | 
Cc1ncc(C(=O)NCCN2CCCC2(C)C)cc1Nc1nn(C)c2nc(Nc3cnn(C)c3)ncc12 [Example 39, N-(2-(2,2-dimethylpyrrolidin-1-yl)ethyl)-6-methyl-5-((1-methyl-6-((1-methyl-1H-pyrazol-4-yl)amino)-1H-pyrazolo[3,4-d]pyrimidin-3-yl)amino)nicotinamide] | > 7500 |  | 
Cc1ncc(NC(=O)CN2CC(F)(F)C2)cc1Nc1nn(C)c2nc(Nc3cnn(C)c3)ncc12 [Example 76, 2-(3,3-difluoroazetidin-1-yl)-N-(6-methyl-5-((1-methyl-6-((1-methyl-1H-pyrazol-4-yl)amino)-1H-pyrazolo[3,4-d]pyrimidin-3-yl)amino)pyridin-3-yl)acetamide] |  | 13.1 | 
Cc1ncc(NC(=O)CN2CCC(F)(F)CC2)cc1Nc1nn(C)c2nc(Nc3cnn(C)c3)ncc12 [Example 72, 2-(4,4-difluoropiperidin-1-yl)-N-(6-methyl-5-((1-methyl-6-((1-methyl-1H-pyrazol-4-yl)amino)-1H-pyrazolo[3,4-d]pyrimidin-3-yl)amino)pyridin-3-yl)acetamide] |  | 3.5 | 
Cc1ncc(C(=O)NCCN2CCCC2(C)C)cc1Nc1nn(C)c2nc(Nc3ccn(C)n3)ncc12 [Example 34, N-(2-(2,2-dimethylpyrrolidin-1-yl)ethyl)-6-methyl-5-((1-methyl-6-((1-methyl-1H-pyrazol-3-yl)amino)-1H-pyrazolo[3,4-d]pyrimidin-3-yl)amino)nicotinamide] | > 7500 |  | 
COC(=O)C(C)(C)c1cccc(Nc2ncc3c(Nc4cc(C(=O)NCCN5CCCC5(C)C)cnc4C)nn(C)c3n2)c1 [Example 46] |  | 18.5 | 
Cc1ncc(NC(=O)CN(CCO)C2CCCC2)cc1Nc1nn(C)c2nc(Nc3cnn(C)c3)ncc12 [Example 79, 2-(cyclopentyl(2-hydroxyethyl)amino)-N-(6-methyl-5-((1-methyl-6-((1-methyl-1H-pyrazol-4-yl)amino)-1H-pyrazolo[3,4-d]pyrimidin-3-yl)amino)pyridin-3-yl)acetamide] |  | 23.5 | 
Cc1ncc(NC(=O)CN2CCC3(CC3)C2)cc1Nc1nn(C)c2nc(Nc3cnn(C)c3)ncc12 [Example 74, N-(6-methyl-5-((1-methyl-6-((1-methyl-1H-pyrazol-4-yl)amino)-1H-pyrazolo[3,4-d]pyrimidin-3-yl)amino)pyridin-3-yl)-2-(5-azaspiro[2.4]heptan-5-yl)acetamide] |  | 1.7 | 
Cc1ncc(NC(=O)CN2CCC[C@@H]2C)cc1Nc1nn(C)c2nc(Nc3cnn(C)c3)ncc12 [Example 71, (S)—N-(6-methyl-5-((1-methyl-6-((1-methyl-1H-pyrazol-4-yl)amino)-1H-pyrazolo[3,4-d]pyrimidin-3-yl)amino)pyridin-3-yl)-2-(2-methylpyrrolidin-1-yl)acetamide] |  | 1.7 | 
Cc1ncc(NC(=O)CN2C[C@H](C)O[C@@H](C)C2)cc1Nc1nn(C)c2nc(Nc3cnn(C)c3)ncc12 (relative stereo) [Example 73, 2-(trans-2,6-dimethylmorpholino)-N-(6-methyl-5-((1-methyl-6-((1-methyl-1H-pyrazol-4-yl)amino)-1H-pyrazolo[3,4-d]pyrimidin-3-yl)amino)pyridin-3-yl)acetamide] |  | 5.3 | 
